According to patent publication US20140235616A1, “PYRAZOLOQUINOLINONE DERIVATIVES, PREPARATION THEREOF AND THERAPEUTIC USE THEREOF” (SANOFI, priority 2011, published 2014):

Target: T1, human MetAP2 (Homo sapiens, UniProt P50579)
T1 construct: made in house; host or cells: Sf9 insect cells (baculovirus)
Test: MetAP2 enzymatic screening test (isolated enzyme, Met-Pro-Arg-pNa substrate, absorbance at 405 nm)
Type: biochemical
Details: read-out: % inhibition hMETAP2 at 100 nM
Experimental: The compounds according to the invention underwent biochemical studies in order to determine their capacity to inhibit the enzyme methionine-aminopeptidase2 (enzymatic test on isolated enzyme).
MetAP2 Enzymatic Screening Test
For the enzymatic test, human MetAP2 protein was obtained from a culture supernatant of insect cells (sf9) infected with MetAP2 recombinant baculovirus.
Before performing the experiment, dialysis of the MetAP2 supernatant is performed over 24 hours at 4° C. in a buffer (10 mM Hepes, 100 mM KCl, 10% glycerol, pH 7.4) in the presence of EDTA (1 mM) over the first 12 hours.
The dialysis supernatant is recovered and manganese, used as cofactor, is added to a final concentration of 300 μM.
The enzymatic test is a test in two steps.
Consequently, the second step consists in reacting the peptides cleaved in the preceding step with a second peptidase in order to release the chromophore.

T1 sequence (P50579 whole entry): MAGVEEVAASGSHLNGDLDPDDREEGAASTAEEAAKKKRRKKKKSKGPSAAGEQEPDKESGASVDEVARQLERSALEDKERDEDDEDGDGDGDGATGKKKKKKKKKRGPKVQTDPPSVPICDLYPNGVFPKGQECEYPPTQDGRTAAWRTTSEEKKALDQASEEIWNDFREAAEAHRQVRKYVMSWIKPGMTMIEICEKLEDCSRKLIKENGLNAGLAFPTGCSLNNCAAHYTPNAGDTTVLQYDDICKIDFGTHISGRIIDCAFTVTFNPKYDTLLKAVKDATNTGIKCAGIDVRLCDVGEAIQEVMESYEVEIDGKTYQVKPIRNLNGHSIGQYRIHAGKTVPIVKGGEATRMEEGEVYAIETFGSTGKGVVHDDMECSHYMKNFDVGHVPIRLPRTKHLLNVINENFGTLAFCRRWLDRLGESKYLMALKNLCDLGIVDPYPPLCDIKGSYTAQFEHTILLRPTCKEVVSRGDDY

SMILES | inhibition at 0.1 µM [%]
CCn1c(=O)c2cn[nH]c2c2ccc(-c3ccc(C(=O)N4CCN(C)CC4)cc3)cc21 [Compound 21, 5-ethyl-7-[4-(4-methylpiperazine-1-carbonyl)phenyl]-1,5-dihydro-4H-pyrazolo[4,3-c]quinolin-4-one] | 70
CCn1c(=O)c2cn[nH]c2c2ccc(-c3ccc(C(C)N4CCCC4)cc3)cc21 (centres unmarked) [Compound 22, 5-ethyl-7-[4-(1-pyrrolidin-1-yl-ethyl)phenyl]-1,5-dihydro-4H-pyrazolo[4,3-c]quinolin-4-one] | 69
CCNC(=O)c1cccc(-c2ccc3c4[nH]ncc4c(=O)n(CC)c3c2)c1 [Compound 35, N-ethyl-3-(5-ethyl-4-oxo-4,5-dihydro-1H-pyrazolo[4,3-c]quinolin-7-yl)benzamide] | 62
CN(C)CCOc1cccc(-c2ccc3c4[nH]ncc4c(=O)n(CC(F)(F)F)c3c2)c1 [Compound 155, 7-[3-(2-dimethylaminoethoxy)phenyl]-5-(2,2,2-trifluoroethyl)-1,5-dihydro-4H-pyrazolo[4,3-c]quinolin-4-one] | 41
COc1ccnc(-c2ccc3c4[nH]ncc4c(=O)n(CC(F)(F)F)c3c2)c1 [Compound 145, 7-(4-methoxypyrid-2-yl)-5-(2,2,2-trifluoroethyl)-1,5-dihydro-4H-pyrazolo[4,3-c]quinolin-4-one] | 42
Cc1cc(-c2ccc3c4[nH]ncc4c(=O)n(CC(F)(F)F)c3c2)cnc1-n1cnnc1 [Compound 139, 7-(5-methyl-6-[1,2,4]triazol-4-ylpyrid-3-yl)-5-(2,2,2-trifluoroethyl)-1,5-dihydro-4H-pyrazolo[4,3-c]quinolin-4-one] | 44
CCn1c(=O)c2cn[nH]c2c2ccc(-c3ccc(C(=O)N4CCNCC4)cc3)cc21 [Compound 18, 5-ethyl-7-[4-(piperazine-1-carbonyl)phenyl]-1,5-dihydro-4H-pyrazolo[4,3-c]quinolin-4-one] | 72
COC(=O)c1cccc(-c2ccc3c4[nH]ncc4c(=O)n(CC(F)(F)F)c3c2)n1 [Compound 164, methyl 6-[4-oxo-5-(2,2,2-trifluoroethyl)-4,5-dihydro-1H-pyrazolo[4,3-c]quinolin-7-yl]pyridine-2-carboxylate] | 37
CCn1c(=O)c2cn[nH]c2c2ccc(-c3ccc(CNC(C)=O)cc3)cc21 [Compound 38, N-[4-(5-ethyl-4-oxo-4,5-dihydro-1H-pyrazolo[4,3-c]quinolin-7-yl)benzyl]acetamide] | 60
O=c1c2cn[nH]c2c2ccc(-c3ccccc3S(=O)(=O)N3CCCC3)cc2n1CC(F)(F)F [Compound 133, 7-[2-(pyrrolidine-1-sulfonyl)phenyl]-5-(2,2,2-trifluoroethyl)-1,5-dihydro-4H-pyrazolo[4,3-c]quinolin-4-one] | 45
CCn1c(=O)c2cn[nH]c2c2ccc(-c3cnc(N4CCNCC4)nc3)cc21 [Compound 20, 5-ethyl-7-(2-piperazin-1-ylpyrimidin-5-yl)-1,5-dihydro-4H-pyrazolo[4,3-c]quinolin-4-one] | 70
COC(=O)c1ccccc1-c1ccc2c3[nH]ncc3c(=O)n(CC(F)(F)F)c2c1 [Compound 156, methyl 2-[4-oxo-5-(2,2,2-trifluoroethyl)-4,5-dihydro-1H-pyrazolo[4,3-c]quinolin-7-yl]benzoate] | 41
Cc1cc(-n2cnnc2)ncc1-c1ccc2c3[nH]ncc3c(=O)n(CC(F)(F)F)c2c1 [Compound 140, 7-(4-methyl-6-[1,2,4]triazol-4-ylpyrid-3-yl)-5-(2,2,2-trifluoroethyl)-1,5-dihydro-4H-pyrazolo[4,3-c]quinolin-4-one] | 44
CC(C)NS(=O)(=O)c1ccccc1-c1ccc2c3[nH]ncc3c(=O)n(CC(F)(F)F)c2c1 [Compound 134, N-isopropyl-2-[4-oxo-5-(2,2,2-trifluoroethyl)-4,5-dihydro-1H-pyrazolo[4,3-c]quinolin-7-yl]benzenesulfonamide] | 45
CCn1c(=O)c2cn[nH]c2c2ccc(-c3ccc(N)cc3C)cc21 [Compound 24, 7-(4-amino-2-methylphenyl)-5-ethyl-1,5-dihydro-4H-pyrazolo[4,3-c]quinolin-4-one] | 67
CCn1c(=O)c2cn[nH]c2c2ccc(-c3cccc(C(=O)NCCOC)c3)cc21 [Compound 39, 3-(5-ethyl-4-oxo-4,5-dihydro-1H-pyrazolo[4,3-c]quinolin-7-yl)-N-(2-methoxyethyl)benzamide] | 60
CCn1c(=O)c2cn[nH]c2c2ccc(-c3ccc(N4CCN(C)CC4)cc3)cc21 [Compound 11, 5-ethyl-7-[4-(4-methylpiperazin-1-yl)phenyl]-1,5-dihydro-4H-pyrazolo[4,3-c]quinolin-4-one] | 76

Results, then the molecule that gave them:

inhibition at 0.1 µM [%] | SMILES
37 | O=c1c2cn[nH]c2c2ccc(-c3ccc(F)cn3)cc2n1CC(F)(F)F [Compound 165, 7-(5-fluoropyrid-2-yl)-5-(2,2,2-trifluoroethyl)-1,5-dihydro-4H-pyrazolo[4,3-c]quinolin-4-one]
38 | CC(C)c1ncncc1-c1ccc2c3[nH]ncc3c(=O)n(CC(F)(F)F)c2c1 [Compound 162, 7-(4-isopropylpyrimidin-5-yl)-5-(2,2,2-trifluoroethyl)-1,5-dihydro-4H-pyrazolo[4,3-c]quinolin-4-one]
40 | Cc1ccnc(-c2ccc3c4[nH]ncc4c(=O)n(CC(F)(F)F)c3c2)c1 [Compound 187, 7-(4-methylpyrid-2-yl)-5-(2,2,2-trifluoroethyl)-1,5-dihydro-4H-pyrazolo[4,3-c]quinolin-4-one]
45 | Cc1cnc(F)c(-c2ccc3c4[nH]ncc4c(=O)n(CC(F)(F)F)c3c2)c1 [Compound 135, 7-(2-fluoro-5-methylpyrid-3-yl)-5-(2,2,2-trifluoroethyl)-1,5-dihydro-4H-pyrazolo[4,3-c]quinolin-4-one]
46 | Nc1ncc(F)cc1-c1ccc2c3[nH]ncc3c(=O)n(CC(F)(F)F)c2c1 [Compound 132, 7-(2-amino-5-fluoropyrid-3-yl)-5-(2,2,2-trifluoroethyl)-1,5-dihydro-4H-pyrazolo[4,3-c]quinolin-4-one]
44 | Cc1nc(N)ccc1-c1ccc2c3[nH]ncc3c(=O)n(CC(F)(F)F)c2c1 [Compound 142, 7-(6-amino-2-methylpyrid-3-yl)-5-(2,2,2-trifluoroethyl)-1,5-dihydro-4H-pyrazolo[4,3-c]quinolin-4-one]
38 | O=c1c2cn[nH]c2c2ccc(-c3cc(Cl)cnc3Cl)cc2n1CC(F)(F)F [Compound 57, 7-(2,5-dichloropyrid-3-yl)-5-(2,2,2-trifluoroethyl)-1,5-dihydro-4H-pyrazolo[4,3-c]quinolin-4-one]
39 | COc1cc(C)c(-c2ccc3c4[nH]ncc4c(=O)n(CC(F)(F)F)c3c2)cn1 [Compound 161, 7-(6-methoxy-4-methylpyrid-3-yl)-5-(2,2,2-trifluoroethyl)-1,5-dihydro-4H-pyrazolo[4,3-c]quinolin-4-one]
36 | O=c1c2cn[nH]c2c2ccc(-c3cc(Cl)cnc3F)cc2n1CC(F)(F)F [Compound 129, 7-(5-chloro-2-fluoropyrid-3-yl)-5-(2,2,2-trifluoroethyl)-1,5-dihydro-4H-pyrazolo[4,3-c]quinolin-4-one]
